Laboratory results as given in PubChem BioAssay AID1259407 (Chemical Carcinogenesis Research Information System (CCRIS), 2018).
Calls of active or inactive are those of the source. No rule for the calls is given here.

System: CCRIS mutagenicity, Ames/micronucleus/aberration tests
Experiment: CCRIS mutagenicity studies

Measured: mutagenic call

CS(C)=O
inactive: End Point: IN VITRO CHROMOSOMAL ABERRATIONS, Test System: CHO-LB CELLS, Metabolic Activation: NONE inactive; negative | End Point: IN VITRO CHROMOSOMAL ABERRATIONS, Test System: CHO-LB CELLS, Metabolic Activation: RAT, LIVER, S-9, AROCLOR 1254 inactive; negative | Test System: AMES SALMONELLA TYPHIMURIUM, Strain/Indicator: TA97, Metabolic Activation: HAMSTER, LIVER, S-9, AROCLOR 1254 (10 OR 30%), Method: PREINCUBATION inactive; negative | Test System: AMES SALMONELLA TYPHIMURIUM, Strain/Indicator: TA97, Metabolic Activation: NONE, Method: PREINCUBATION inactive; negative | Test System: AMES SALMONELLA TYPHIMURIUM, Strain/Indicator: TA97, Metabolic Activation: NONE, Method: PREINCUBATION (20 MIN) inactive; negative | Test System: AMES SALMONELLA TYPHIMURIUM, Strain/Indicator: TA97, Metabolic Activation: NONE, Method: STANDARD PLATE inactive; negative | Test System: AMES SALMONELLA TYPHIMURIUM, Strain/Indicator: TA97, Metabolic Activation: RAT, LIVER, S-9, AROCLOR 1254 (10 OR 30%), Method: PREINCUBATION inactive; negative | Test System: AMES SALMONELLA TYPHIMURIUM, Strain/Indicator: TA97, Metabolic Activation: RAT, LIVER, S-9, AROCLOR 1254, Method: STANDARD PLATE inactive; negative | Test System: AMES SALMONELLA TYPHIMURIUM, Strain/Indicator: TA97, Metabolic Activation: RAT, LIVER, S-9, PHENOBARBITAL AND 5,6-BENZOFLAVONE, Method: PREINCUBATION (20 MIN) inactive; negative | Test System: AMES SALMONELLA TYPHIMURIUM, Strain/Indicator: TA98, Metabolic Activation: HAMSTER, LIVER, S-9, AROCLOR 1254 (10 OR 30%), Method: PREINCUBATION inactive; negative | Test System: AMES SALMONELLA TYPHIMURIUM, Strain/Indicator: TA98, Metabolic Activation: NONE, Method: FLUCTUATION (MICROTITER) inactive; negative | Test System: AMES SALMONELLA TYPHIMURIUM, Strain/Indicator: TA98, Metabolic Activation: NONE, Method: PREINCUBATION inactive; negative | Test System: AMES SALMONELLA TYPHIMURIUM, Strain/Indicator: TA98, Metabolic Activation: NONE, Method: PREINCUBATION (20 MIN) inactive; negative | Test System: AMES SALMONELLA TYPHIMURIUM, Strain/Indicator: TA98, Metabolic Activation: NONE, Method: STANDARD PLATE inactive; negative | Test System: AMES SALMONELLA TYPHIMURIUM, Strain/Indicator: TA98, Metabolic Activation: RAT LIVER S-9, AROCLOR 1254, Method: FLUCTUATION (MICROTITER) inactive; negative | Test System: AMES SALMONELLA TYPHIMURIUM, Strain/Indicator: TA98, Metabolic Activation: RAT, LIVER, S-9, AROCLOR 1254 (10 OR 30%), Method: PREINCUBATION inactive; negative | Test System: AMES SALMONELLA TYPHIMURIUM, Strain/Indicator: TA98, Metabolic Activation: RAT, LIVER, S-9, AROCLOR 1254, Method: STANDARD PLATE inactive; negative | Test System: AMES SALMONELLA TYPHIMURIUM, Strain/Indicator: TA98, Metabolic Activation: RAT, LIVER, S-9, PHENOBARBITAL AND 5,6-BENZOFLAVONE, Method: PREINCUBATION (20 MIN) inactive; negative | Test System: AMES SALMONELLA TYPHIMURIUM, Strain/Indicator: TA100, Metabolic Activation: HAMSTER, LIVER, S-9, AROCLOR 1254 (10 OR 30%), Method: PREINCUBATION inactive; negative | Test System: AMES SALMONELLA TYPHIMURIUM, Strain/Indicator: TA100, Metabolic Activation: NONE, Method: PREINCUBATION inactive; negative | Test System: AMES SALMONELLA TYPHIMURIUM, Strain/Indicator: TA100, Metabolic Activation: NONE, Method: PREINCUBATION (20 MIN) inactive; negative | Test System: AMES SALMONELLA TYPHIMURIUM, Strain/Indicator: TA100, Metabolic Activation: NONE, Method: STANDARD PLATE inactive; negative | Test System: AMES SALMONELLA TYPHIMURIUM, Strain/Indicator: TA100, Metabolic Activation: RAT, LIVER, S-9, AROCLOR 1254 (10 OR 30%), Method: PREINCUBATION inactive; negative | Test System: AMES SALMONELLA TYPHIMURIUM, Strain/Indicator: TA100, Metabolic Activation: RAT, LIVER, S-9, AROCLOR 1254, Method: STANDARD PLATE inactive; negative | Test System: AMES SALMONELLA TYPHIMURIUM, Strain/Indicator: TA100, Metabolic Activation: RAT, LIVER, S-9, PHENOBARBITAL AND 5,6-BENZOFLAVONE, Method: PREINCUBATION (20 MIN) inactive; negative | Test System: AMES SALMONELLA TYPHIMURIUM, Strain/Indicator: TA102, Metabolic Activation: NONE, Method: PREINCUBATION (20 MIN) inactive; negative | Test System: AMES SALMONELLA TYPHIMURIUM, Strain/Indicator: TA102, Metabolic Activation: RAT, LIVER, S-9, PHENOBARBITAL AND 5,6-BENZOFLAVONE, Method: PREINCUBATION (20 MIN) inactive; negative | Test System: AMES SALMONELLA TYPHIMURIUM, Strain/Indicator: TA104, Metabolic Activation: NONE, Method: PREINCUBATION (20 MIN) inactive; negative | Test System: AMES SALMONELLA TYPHIMURIUM, Strain/Indicator: TA104, Metabolic Activation: RAT, LIVER, S-9, PHENOBARBITAL AND 5,6-BENZOFLAVONE, Method: PREINCUBATION (20 MIN) inactive; negative | Test System: AMES SALMONELLA TYPHIMURIUM, Strain/Indicator: TA1535, Metabolic Activation: HAMSTER, LIVER, S-9, AROCLOR 1254 (10 OR 30%), Method: PREINCUBATION inactive; negative | Test System: AMES SALMONELLA TYPHIMURIUM, Strain/Indicator: TA1535, Metabolic Activation: NONE, Method: PREINCUBATION inactive; negative | Test System: AMES SALMONELLA TYPHIMURIUM, Strain/Indicator: TA1535, Metabolic Activation: NONE, Method: PREINCUBATION (20 MIN) inactive; negative
